Columns and labels:
[1] = Stability assessed as cyclization activation in phosphate buffer at pH 6.0 by HPLC; assay type: physicochemical
[2] = Stability assessed as cyclization activation in phosphate buffer at pH 7.4 by HPLC; assay type: physicochemical
[3] = Stability assessed as formation of ((2R,3S,5R)-5-(5-fluoro-2,4-dioxo-3,4-dihydropyrimidin-1(2H)-yl)-3-hydroxytetrahydrofuran-2-yl)methyl 3-(aminooxy)-2,2-dimethylpropanoate in phosphate buffer at pH 7.4 in presence of alpha-chymotrypsin; assay type: ADME
[4] = Stability in phosphate buffer at pH 7.4 in absence of alpha-chymotrypsin; assay type: ADME

half-life [1]	half-life [2]	t1/2 [3]	Stability [4]	SMILES
23.4 h	0.722 h			CC(C)(CON)C(=O)OC[C@H]1O[C@@H](n2cc(F)c(=O)[nH]c2=O)C[C@@H]1O.Cl
22.9 h	1.14 h			Cl.NOCCC(=O)OC[C@H]1O[C@@H](n2cc(F)c(=O)[nH]c2=O)C[C@@H]1O
		0.608 h	Stable	CC(C)(CONC(=O)[C@H](Cc1ccccc1)NC(=O)OCc1ccccc1)C(=O)OC[C@H]1O[C@@H](n2cc(F)c(=O)[nH]c2=O)C[C@@H]1O
